# Target: T1, CDK8/CycC (Homo sapiens, UniProt P49336)
# T1 construct: purchased Invitrogen PV4402
# Assay: FRET based Lanthascreen binding competition assay for CDK8 inhibitory activity
# Details: CDK8 co-expressed with CycC; class symbols
# Method in brief: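 Competition binding of a dye-labeled ATP-competitive Alexa647 probe to CDK8 co-expressed with CycC, Eu-labeled via biotinylated anti-His antibody/streptavidin.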
# T1 sequence (P49336 whole entry): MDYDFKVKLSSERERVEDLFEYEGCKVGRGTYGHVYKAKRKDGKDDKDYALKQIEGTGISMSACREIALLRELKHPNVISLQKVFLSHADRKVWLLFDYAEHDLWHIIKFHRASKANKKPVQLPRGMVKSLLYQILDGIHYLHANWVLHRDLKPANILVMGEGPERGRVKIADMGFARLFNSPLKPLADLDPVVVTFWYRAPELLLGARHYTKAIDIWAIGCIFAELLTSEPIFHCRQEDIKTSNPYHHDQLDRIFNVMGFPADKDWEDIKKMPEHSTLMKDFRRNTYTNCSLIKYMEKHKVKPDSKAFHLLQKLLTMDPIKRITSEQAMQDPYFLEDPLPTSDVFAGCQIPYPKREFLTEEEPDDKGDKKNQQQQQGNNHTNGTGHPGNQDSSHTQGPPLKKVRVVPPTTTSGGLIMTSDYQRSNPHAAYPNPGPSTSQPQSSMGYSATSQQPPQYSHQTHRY
# T1 sequence (P24863 whole entry partner): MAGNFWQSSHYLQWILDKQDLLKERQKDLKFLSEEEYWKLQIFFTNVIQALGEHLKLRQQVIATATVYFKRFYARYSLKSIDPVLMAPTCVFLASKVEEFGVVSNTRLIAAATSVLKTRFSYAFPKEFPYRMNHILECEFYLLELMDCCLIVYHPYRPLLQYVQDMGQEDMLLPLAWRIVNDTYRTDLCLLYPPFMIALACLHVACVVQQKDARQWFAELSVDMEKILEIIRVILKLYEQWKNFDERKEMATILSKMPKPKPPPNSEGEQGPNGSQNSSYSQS
row,IC50 [µM],Structure (SMILES)
1,0.1 to 1,"Cc1n[nH]c2ncc(C(=O)N3CCCC3c3ccccc3OCC(F)(F)F)cc12 (stereo not drawn) [compound 162, (3-Methyl-1H-pyrazolo[3,4-b]pyridin-5-yl)-{2-[2-(2,2,2-trifluoro-ethoxy)-phenyl]-pyrrolidin-1-yl}-methanone]"

# Same assay, conditions: CDK8 co-expressed with CycC; class symbols; read-out: IC50
row,Structure (SMILES),IC50 [µM]
1,"Cc1ccc([C@H]2CCCN2C(=O)c2cnc3[nH]nc(C)c3c2)cc1 [compound 137, (3-Methyl-1H-pyrazolo[3,4-b]pyridin-5-yl)-((R)-2-p-tolyl-pyrrolidin-1-yl)-methanone]",1 to 10
2,"Cc1n[nH]c2ncc(C(=O)N3CC[C@@H]3c3ccc(F)cc3)cc12 [compound 175, [(R)-2-(4-Fluoro-phenyl)-azetidin-1-yl]-(3-methyl-1H-pyrazolo[3,4-b]pyridin-5-yl)-methanone]",0.1 to 1
3,"Cc1n[nH]c2ncc(C(=O)N3CCNC(c4ccccc4)C3)cc12 (stereo not drawn) [compound 182, (3-Methyl-1H-pyrazolo[3,4-b]pyridin-5-yl)-(3-phenyl-piperazin-1-yl)-methanone]",1 to 10
4,"O=C(c1cnc2[nH]nc(C(F)(F)F)c2c1)N1CCCC[C@@H]1c1ccccc1 [compound 183, ((R)-2-Phenyl-piperidin-1-yl)-(3-trifluoromethyl-1H-pyrazolo[3,4-b]pyridin-5-yl)-methanone]",0.1 to 1
5,"O=C(c1cnc2[nH]nc(C(F)(F)F)c2c1)N1CCCC[C@H]1c1ccccc1 [compound 184, ((S)-2-Phenyl-piperidin-1-yl)-(3-trifluoromethyl-1H-pyrazolo[3,4-b]pyridin-5-yl)-methanone]",0.1 to 1
6,"Cc1n[nH]c2ncc(C(=O)N3C[C@@H](C(N)=O)[C@H](c4ccc(Cl)cc4)C3)cc12 [compound 185, (3S,4R)-4-(4-Chloro-phenyl)-1-(3-methyl-1H-pyrazolo[3,4-b]pyridine-5-carbonyl)-pyrrolidine-3-carboxylic acid amide]",1 to 10
7,"Cc1n[nH]c2ncc(C(=O)N3C[C@H](C(N)=O)[C@@H](c4ccc(Cl)cc4)C3)cc12 [compound 186, (3R,4S)-4-(4-Chloro-phenyl)-1-(3-methyl-1H-pyrazolo[3,4-b]pyridine-5-carbonyl)-pyrrolidine-3-carboxylic acid amide]",0.1 to 1
8,"CC(C)c1ccc([C@H]2CCCN2C(=O)c2ccc3[nH]nc(N)c3c2)cc1 [compound 195, (3-Amino-1H-indazol-5-yl)-[(R)-2-(4-isopropyl-phenyl)-pyrrolidin-1-yl]-methanone]",0.1 to 1
9,"Cc1n[nH]c2ncc(C(=O)N3CCC[C@@H]3c3ccc(C(C)C)cc3)cc12 [compound 197, [(R)-2-(4-Isopropyl-phenyl)-pyrrolidin-1-yl]-(3-methyl-1H-pyrazolo[3,4-b]pyridin-5-yl)-methanone]",0.1 to 1
10,"Cc1n[nH]c2ncc(C(=O)N3CC[C@](O)(c4ccccc4)C3)cc12 [compound 198, ((S)-3-Hydroxy-3-phenyl-pyrrolidin-1-yl)-(3-methyl-1H-pyrazolo[3,4-b]pyridin-5-yl)-methanone]",1 to 10
11,"Cc1n[nH]c2ncc(C(=O)N3CCC3c3ccc(F)cc3)cc12 (stereo not drawn) [compound 200, [2-(4-Fluoro-phenyl)-azetidin-1-yl]-(3-methyl-1H-pyrazolo[3,4-b]pyridin-5-yl)-methanone]",0.1 to 1
12,"Cc1n[nH]c2cc(F)c(C(=O)N3CCC[C@@H]3c3ccc(Cl)cc3)cc12 [compound 203, [(R)-2-(4-Chloro-phenyl)-pyrrolidin-1-yl]-(6-fluoro-3-methyl-1H-indazol-5-yl)-methanone]",1 to 10

# Now from value to compound:
row,IC50 [µM],Structure (SMILES)
1,< 0.01,"Cc1ccc([C@@H]2CCCN2C(=O)c2cnc3[nH]nc(C)c3c2)cc1 [compound 136, (3-Methyl-1H-pyrazolo[3,4-b]pyridin-5-yl)-((S)-2-p-tolyl-pyrrolidin-1-yl)-methanone]"
2,0.1 to 1,"Cc1n[nH]c2ncc(C(=O)N3CCC[C@@H](c4ccccc4)C3)cc12 [compound 139, (3-Methyl-1H-pyrazolo[3,4-b]pyridin-5-yl)-((S)-3-phenyl-piperidin-1-yl)-methanone]"
3,0.1 to 1,"COc1ccccc1C1CCCN1C(=O)c1cnc2[nH]nc(C)c2c1 (stereo not drawn) [compound 141, [2-(2-Methoxy-phenyl)-pyrrolidin-1-yl]-(3-methyl-1H-pyrazolo[3,4-b]pyridin-5-yl)-methanone]"
4,0.01 to 0.1,"COc1ccccc1[C@@H]1CCCN1C(=O)c1cnc2[nH]nc(C)c2c1 [compound 143, [(S)-2-(2-Methoxy-phenyl)-pyrrolidin-1-yl]-(3-methyl-1H-pyrazolo[3,4-b]pyridin-5-yl)-methanone]"
5,0.01 to 0.1,"Cc1n[nH]c2ncc(C(=O)N3CC[C@@H](N)[C@H]3c3ccc(F)cc3)cc12 [compound 144, [(2R,3R)-3-Amino-2-(4-fluoro-phenyl)-pyrrolidin-1-yl]-(3-methyl-1H-pyrazolo[3,4-b]pyridin-5-yl)-methanone]"
6,0.1 to 1,"Cc1n[nH]c2ncc(C(=O)N3C[C@@H](O)C[C@H]3c3ccc(F)cc3)cc12 [compound 145, [(2S,4S)-2-(4-Fluoro-phenyl)-4-hydroxy-pyrrolidin-1-yl]-(3-methyl-1H-pyrazolo[3,4-b]pyridin-5-yl)-methanone]"
7,0.1 to 1,"Nc1n[nH]c2ccc(C(=O)N3CCCC3c3cccc(Cl)c3)cc12 (stereo not drawn) [compound 147, (3-Amino-1H-indazol-5-yl)-[2-(3-chloro-phenyl)-pyrrolidin-1-yl]-methanone]"
8,0.1 to 1,"Nc1n[nH]c2ccc(C(=O)N3CCCC3c3ccccc3Cl)cc12 (stereo not drawn) [compound 148, (3-Amino-1H-indazol-5-yl)-[2-(2-chloro-phenyl)-pyrrolidin-1-yl]-methanone]"
9,0.1 to 1,"Cc1n[nH]c2ncc(C(=O)N3CCCCC[C@H]3c3cccc(F)c3)cc12 [compound 150, [(S)-2-(3-Fluoro-phenyl)-azepan-1-yl]-(3-methyl-1H-pyrazolo[3,4-b]pyridin-5-yl)-methanone]"
10,< 0.01,"O=C(c1cnc2[nH]nc(C3CC3)c2c1)N1CCC[C@H]1c1ccc(Cl)cc1 [compound 152, [(S)-2-(4-Chloro-phenyl)-pyrrolidin-1-yl]-(3-cyclopropyl-1H-pyrazolo[3,4-b]pyridin-5-yl)-methanone]"
11,0.1 to 1,"O=C(c1cnc2[nH]nc(C3CC3)c2c1)N1CCC[C@@H]1c1ccc(Cl)cc1 [compound 153, [(R)-2-(4-Chloro-phenyl)-pyrrolidin-1-yl]-(3-cyclopropyl-1H-pyrazolo[3,4-b]pyridin-5-yl)-methanone]"
12,< 0.01,"Cc1n[nH]c2ncc(C(=O)N3CCC[C@H]3c3ccc(C(F)(F)F)cc3)cc12 [compound 157, (3-Methyl-1H-pyrazolo[3,4-b]pyridin-5-yl)-[(S)-2-(4-trifluoromethyl-phenyl)-pyrrolidin-1-yl]-methanone]"
13,0.01 to 0.1,"Cc1n[nH]c2ncc(C(=O)N3CCC(C)C3c3ccc(C(F)(F)F)cc3)cc12 (stereo not drawn) [compound 159, (3-Methyl-1H-pyrazolo[3,4-b]pyridin-5-yl)-[3-methyl-2-(4-trifluoromethyl-phenyl)-pyrrolidin-1-yl]-methanone]"
14,0.1 to 1,"Cc1n[nH]c2ncc(C(=O)N3CC(C)CC3c3ccc(C(F)(F)F)cc3)cc12 (stereo not drawn) [compound 160, (3-Methyl-1H-pyrazolo[3,4-b]pyridin-5-yl)-[4-methyl-2-(4-trifluoromethyl-phenyl)-pyrrolidin-1-yl]-methanone]"
15,0.01 to 0.1,"Nc1n[nH]c2ccc(C(=O)N3CCCC3c3ccc(Cl)c(F)c3)cc12 (stereo not drawn) [compound 167, (3-Amino-1H-indazol-5-yl)-[2-(4-chloro-3-fluoro-phenyl)-pyrrolidin-1-yl] methanone]"
16,0.1 to 1,"O=C(c1cnc2[nH]nc(C3CC3)c2c1)N1CCCCC1c1ccccc1 (stereo not drawn) [compound 168, (3-Cyclopropyl-1H-pyrazolo[3,4-b]pyridin-5-yl)-(2-phenyl-piperidin-1-yl)-methanone]"
17,0.1 to 1,"O=C(c1cnc2[nH]nc(C(F)(F)F)c2c1)N1CCCCC1c1ccccc1 (stereo not drawn) [compound 169, (2-Phenyl-piperidin-1-yl)-(3-trifluoromethyl-1H-pyrazolo[3,4-b]pyridin-5-yl)-methanone]"
18,< 0.01,"Cc1n[nH]c2ncc(C(=O)N3CC[C@@H](C)[C@H]3c3ccc(C(F)(F)F)cc3)cc12 [compound 172, (3-Methyl-1H-pyrazolo[3,4-b]pyridin-5-yl)-[(2S,3R)-3-methyl-2-(4-trifluoromethyl-phenyl)-pyrrolidin-1-yl]-methanone]"
19,0.01 to 0.1,"Cc1n[nH]c2ncc(C(=O)N3CCCC3c3ccc(Cl)c(F)c3)cc12 (stereo not drawn) [compound 179, [2-(4-Chloro-3-fluoro-phenyl)-pyrrolidin-1-yl]-(3-methyl-1H-pyrazolo[3,4-b]pyridin-5-yl)-methanone]"
20,0.01 to 0.1,"Cc1n[nH]c2ncc(C(=O)N3CCCC3c3ccc(Cl)c(Cl)c3)cc12 (stereo not drawn) [compound 188, [2-(3,4-Dichloro-phenyl)-pyrrolidin-1-yl]-(3-methyl-1H-pyrazolo[3,4-b]pyridin-5-yl)-methanone]"
21,< 0.01,"CC(C)c1ccc([C@@H]2CCCN2C(=O)c2ccc3[nH]nc(N)c3c2)cc1 [compound 194, (3-Amino-1H-indazol-5-yl)-[(S)-2-(4-isopropyl-phenyl)-pyrrolidin-1-yl]-methanone]"
22,< 0.01,"Cc1n[nH]c2ncc(C(=O)N3CCC[C@H]3c3ccc(C(C)C)cc3)cc12 [compound 196, [(S)-2-(4-Isopropyl-phenyl)-pyrrolidin-1-yl]-(3-methyl-1H-pyrazolo[3,4-b]pyridin-5-yl)-methanone]"

# Same assay, conditions: IC50 [μM], CDK8 co-expressed with CycC; class symbols
row,IC50 [µM],Structure (SMILES)
1,0.01 to 0.1,O=C(c1ccc2[nH]ncc2c1)N1CCC[C@H]1c1ccc(Br)cc1 [compound 156]
2,< 0.01,Cc1n[nH]c2ccc(C(=O)N3CCOCC3c3ccc(Cl)cc3)cc12 (stereo not drawn) [compound 178]
3,0.01 to 0.1,"Cc1n[nH]c2cnc(C(=O)N3CCC[C@H]3c3ccc(Cl)cc3)cc12 [compound 190, [(S)-2-(4-Chloro-phenyl)-pyrrolidin-1-yl]-(3-methyl-1H-pyrazolo[3,4-c]pyridin-5-yl)-methanone]"
4,< 0.01,"Cc1n[nH]c2ccc(C(=O)N3CC[C@H]3c3ccc(Cl)cc3)cc12 [compound 202, [(S)-2-(4-Chloro-phenyl)-azetidin-1-yl]-(3-methyl-1H-indazol-5-yl)-methanone]"

# — patent US9862717B2 (Merck Patent GmbH, priority 2014, dated 2018)
